Data: ChEMBL document CHEMBL5260848, “Recent advancements in the development of bioactive pyrazoline derivatives” (Eur J Med Chem, 2020)
Converted amounts (≈) assume the structure as drawn.

Key:
Acetylcholinesterase [1] = molecular target: T1, Acetylcholinesterase (Homo sapiens, UniProt P22303)
[2] = Antioxidant activity assessed as DPPH radical scavenging activity; format: functional
Candida albicans [3] = assay: Antifungal activity against Candida albicans by agar dilution method; format: functional
Carbonic anhydrase 2 = Carbonic anhydrase 2 (Homo sapiens, UniProt P00918)
Carbonic anhydrase 9 [4] = molecular target: T2, Carbonic anhydrase 9 (Homo sapiens, UniProt Q16790); assay: Inhibition of human CA9
Carbonic anhydrase 1 = Carbonic anhydrase 1 (Homo sapiens, UniProt P00915)
Carbonic anhydrase 1, sequence (P00915 whole entry): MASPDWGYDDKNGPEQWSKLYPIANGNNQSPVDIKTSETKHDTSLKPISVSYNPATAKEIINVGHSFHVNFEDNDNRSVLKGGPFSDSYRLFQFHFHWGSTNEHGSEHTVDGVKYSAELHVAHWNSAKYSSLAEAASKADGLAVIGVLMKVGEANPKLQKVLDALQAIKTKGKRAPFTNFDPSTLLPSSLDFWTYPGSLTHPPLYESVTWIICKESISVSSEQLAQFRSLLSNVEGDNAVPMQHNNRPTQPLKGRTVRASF

Acetylcholinesterase [5] = molecular target: T1, Acetylcholinesterase; remark: listed apart in the source
[6] = Growth inhibition of human Panel NCI-58 (58 carcinoma cell lines) cells by SRB method; format: functional
[7] = Cytotoxicity against human Panel NCI-58 (58 carcinoma cell lines) cells by SRB method; format: functional; conditions: read-out: LC50 (the source's name)
MCF7 = assay: Cytotoxicity against human MCF7 cells; format: functional, cell-based
Candida albicans [8] = assay: Antifungal activity against Candida albicans assessed as reduction in microbial growth; format: functional
[9] = Cytotoxicity against human Panel NCI-58 (58 carcinoma cell lines) cells; format: functional
Cryptococcus neoformans = assay: Antifungal activity against Cryptococcus neoformans assessed as reduction in microbial growth; format: functional
Carbonic anhydrase 12 [10] = molecular target: T3, Carbonic anhydrase 12 (Homo sapiens, UniProt O43570); assay: Inhibition of human CA12
T3 sequence (O43570 whole entry): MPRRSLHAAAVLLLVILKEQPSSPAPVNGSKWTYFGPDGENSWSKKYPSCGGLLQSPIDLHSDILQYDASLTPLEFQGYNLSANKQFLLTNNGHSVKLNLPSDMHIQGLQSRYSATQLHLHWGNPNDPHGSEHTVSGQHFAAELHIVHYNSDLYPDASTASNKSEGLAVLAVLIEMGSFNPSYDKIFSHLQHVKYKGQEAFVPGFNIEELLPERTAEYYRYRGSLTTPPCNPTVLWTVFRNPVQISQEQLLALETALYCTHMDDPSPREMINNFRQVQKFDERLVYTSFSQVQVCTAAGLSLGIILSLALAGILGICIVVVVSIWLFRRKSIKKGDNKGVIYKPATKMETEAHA

Mus musculus [11] = assay: Antidiabetic activity against albino mouse assessed as reduction in blood glucose level at 0.2 mmol/Kg relative to control; format: functional; parameters: scale not given: the % may be the effect or the level left
Plasmodium falciparum = assay: Antimalarial activity against chloroquine-sensitive Plasmodium falciparum NF54 measured after 72 hrs by giemsa staining based analysis; format: functional, organism-based; conditions: NF54, 72 h
Mus musculus [12] = organism: Mus musculus; assay: Antidepressant activity in Swiss albino mouse assessed as decrease in immobility time by tail suspension test; format: functional
[13] = tested on: Mycobacterium tuberculosis; assay: microbe, parasite or virus in culture; conditions: H37Rv
Mus musculus [14] = organism: Mus musculus; assay: Antidepressant activity in Swiss albino mouse assessed as decrease in immobility time by forced swimming test; format: functional
Staphylococcus aureus = assay: microbe, parasite or virus in culture
Candida albicans [15] = assay: Antifungal activity against Candida albicans; format: functional
Aspergillus niger = assay: Antifungal activity against Aspergillus niger; format: functional
Aspergillus clavatus = assay: Antifungal activity against Aspergillus clavatus; format: functional
[16] = Cytotoxicity against human HPLF cells assessed as reduction in cell viability incubated for 48 hrs by MTT assay; format: functional
Carbonic anhydrase 9 [17] = molecular target: T2, Carbonic anhydrase 9; assay: Inhibition of human CA9 preincubated for 15 mins by phenol red dye based stopped flow CO2 hydration assay
HSC-2 = assay: Cytotoxicity against human HSC-2 cells assessed as reduction in cell viability incubated for 48 hrs by MTT assay; format: functional
HSC-3 = assay: Cytotoxicity against human HSC-3 cells assessed as reduction in cell viability incubated for 48 hrs by MTT assay; format: functional
[18] = Cytotoxicity against human HPC cells assessed as reduction in cell viability incubated for 48 hrs by MTT assay; format: functional
[19] = Cytotoxicity against human HGF cells assessed as reduction in cell viability incubated for 48 hrs by MTT assay; format: functional
Ca9-22 = assay: Cytotoxicity against human Ca9-22 cells assessed as reduction in cell viability incubated for 48 hrs by MTT assay; format: functional
Carbonic anhydrase 12 [20] = molecular target: T3, Carbonic anhydrase 12; assay: Inhibition of human CA12 preincubated for 15 mins by phenol red dye based stopped flow CO2 hydration assay

T1 sequence (P22303 whole entry): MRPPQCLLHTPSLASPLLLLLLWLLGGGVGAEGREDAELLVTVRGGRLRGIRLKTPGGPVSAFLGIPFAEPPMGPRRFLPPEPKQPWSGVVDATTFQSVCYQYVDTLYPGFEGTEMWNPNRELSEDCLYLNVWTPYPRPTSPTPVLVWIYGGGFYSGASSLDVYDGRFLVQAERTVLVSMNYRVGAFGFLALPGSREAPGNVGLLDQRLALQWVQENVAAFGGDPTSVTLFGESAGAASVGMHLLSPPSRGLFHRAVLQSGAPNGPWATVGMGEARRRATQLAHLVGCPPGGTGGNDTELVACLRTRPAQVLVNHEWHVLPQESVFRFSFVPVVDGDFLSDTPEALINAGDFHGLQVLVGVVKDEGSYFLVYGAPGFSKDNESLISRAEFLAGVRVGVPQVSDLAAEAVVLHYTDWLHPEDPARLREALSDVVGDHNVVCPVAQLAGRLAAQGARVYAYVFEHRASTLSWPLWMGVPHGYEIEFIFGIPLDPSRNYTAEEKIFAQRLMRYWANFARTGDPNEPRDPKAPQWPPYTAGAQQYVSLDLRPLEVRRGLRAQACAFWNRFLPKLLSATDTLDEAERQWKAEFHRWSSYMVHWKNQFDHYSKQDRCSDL

With `COc1ccc(C2CC(c3ccc(Cl)cc3)=NN2c2ccc(S(N)(=O)=O)cc2)c(OC)c1` (stereo not drawn) the Ki (Acetylcholinesterase [1]) was 37.7 nM.
In the case of `COc1ccc2cc(C3CC(c4cc(Br)ccc4O)=NO3)c3nnnn3c2c1` (stereo not drawn), the IC50 [2] is reported as 23.3 µg/mL (≈ 52.9 µM) and the MIC (Candida albicans [3]) is reported as 25 µg/mL (≈ 56.8 µM).
Molecule `COc1ccc(C2=NN(C(=O)c3ccc(S(N)(=O)=O)cc3)C(c3ccc(OC)cc3)C2)cc1` (stereo not drawn) has a Ki (Carbonic anhydrase 2) of 31.7 nM, a Ki (Carbonic anhydrase 9 [4]) of 5.5 nM and a Ki (Carbonic anhydrase 1) of 87.8 nM.
With `O=C(/C=C/c1ccc(N2CCCCC2)cc1)c1sccc1Cl` the IC50 (Acetylcholinesterase [5]) was 160 nM.
`COc1ccc(C2=NN(C(=O)c3ccc(S(N)(=O)=O)cc3)C(c3ccc(OC)c(OC)c3)C2)c(OC)c1` (stereo not drawn) showed a Ki (Carbonic anhydrase 9 [4]) of 5.5 nM and a Ki (Carbonic anhydrase 1) of 2670 nM.
For `OCCNc1nc(NCCO)nc(Nc2ccc(C3=NN(c4cc(Cl)cc(Cl)c4)C(c4ccc(Cl)cc4)C3)cc2)n1` (stereo not drawn), the GI50 [6] was 569 nM and the CC50 [7] was 5150 nM.
Molecule `NS(=O)(=O)c1ccc(C(=O)N2N=C(c3ccccc3)CC2c2ccc(Cl)cc2)cc1` (stereo not drawn) has a Ki (Carbonic anhydrase 2) of 31.7 nM, a Ki (Carbonic anhydrase 9 [4]) of 5.5 nM and a Ki (Carbonic anhydrase 1) of 87.8 nM.
`CN1N=C2C(C[C@H]3[C@@H]4CCc5cc(O)ccc5[C@H]4CC[C@]23C)C1c1ccc(Br)cc1` (stereo partly drawn) showed an IC50 (MCF7) of 43 nM.
Molecule `COc1cc(C2CC(c3ccc(Nc4ccnc5cc(Cl)ccc45)cc3)=NN2c2ccc(Cl)cc2)cc(OC)c1OC` (stereo not drawn) has an MIC50 (Candida albicans [8]) of 3.9 µg/mL, a GI50 [9] of under 1000 nM and an MIC50 (Cryptococcus neoformans) of 3.9 µg/mL.
Molecule `COc1ccc(C2=NN(C(=O)c3ccc(S(N)(=O)=O)cc3)C(c3ccccc3)C2)c(OC)c1` (stereo not drawn) has a Ki (Carbonic anhydrase 12 [10]) of 7.1 nM, a Ki (Carbonic anhydrase 2) of 31.7 nM and a Ki (Carbonic anhydrase 9 [4]) of 5.5 nM. For the same molecule, the Ki (Carbonic anhydrase 1) was 87.8 nM.
Molecule `Cc1ccc2cc(C3CC(c4sccc4Cl)=NN3)c(Cl)nc2c1` (stereo not drawn) has an IC50 (Acetylcholinesterase [5]) of 200 nM.
Molecule `O=C(Nc1ccccc1)NS(=O)(=O)c1ccc(N2N=C(c3ccc(Br)cc3)CC2c2ccc(F)cc2)cc1` (stereo not drawn) has an Activity (Mus musculus [11]) of 16%.
Molecule `COc1ccc(C2CC(c3ccc(F)cc3)=NN2c2ccc(S(N)(=O)=O)cc2)c(OC)c1` (stereo not drawn) has a Ki (Acetylcholinesterase [1]) of 37.7 nM.
Molecule `COc1ccc(C2CC(c3ccccc3)=NN2c2ccc(S(N)(=O)=O)cc2)c(OC)c1` (stereo not drawn) has a Ki (Acetylcholinesterase [1]) of 37.7 nM.
With `COc1cc(C)c(/C=C/C(=O)c2cc(OC)c(OC)c(OC)c2)cc1C(C)C` the IC50 (Plasmodium falciparum) was under 2000 nM.
In the case of `Cc1ccc2cc(C3CC(c4cc(Br)ccc4O)=NN3)c3nnnn3c2c1` (stereo not drawn), the MIC (Candida albicans [3]) is reported as 25 µg/mL (≈ 59.1 µM).
In the case of `Cc1nc(-c2ccc(Br)cc2)ccc1C1=NNC(c2c(F)cccc2Cl)C1` (stereo not drawn), the Time (Mus musculus [12]) is reported as 70.33 s, the MIC [13] is reported as 12.5 µg/mL (≈ 28.1 µM) and the Time (Mus musculus [14]) is reported as 66.67 s.
`COc1ccc(C2CC(c3cccc(Nc4ccnc5cc(Cl)ccc45)c3)=NN2c2ccc(Cl)cc2)cc1` (stereo not drawn) gave an MIC50 (Candida albicans [8]) of 3.9 µg/mL, a GI50 [9] of under 1000 nM and an MIC50 (Cryptococcus neoformans) of under 3.9 µg/mL. The MIC (Cryptococcus neoformans; read-out: MIC100) was under 3.9 µg/mL.
For `COC(=O)C1N=NN(CC(=O)N2N=C(c3nnn(Cc4ccccc4)c3C)CC2c2cccs2)C1C(=O)OC` (stereo not drawn), the MIC (Staphylococcus aureus) was 3.9 µg/mL (≈ 7.08 µM).
For `O=C(c1ccncc1)N1N=C(c2cccc([N+](=O)[O-])c2)CC1c1cc2ccccc2nc1Cl` (stereo not drawn), the MIC (Candida albicans [15]) was 12.5 µg/mL (≈ 27.3 µM), the MIC (Aspergillus niger) was 12.5 µg/mL (≈ 27.3 µM) and the MIC (Aspergillus clavatus) was 12.5 µg/mL (≈ 27.3 µM).
Molecule `NS(=O)(=O)c1ccc(N2N=C(c3ccc(O)cc3)CC2c2ccc(Br)cc2)cc1` (stereo not drawn) has a CC50 [16] of 39300 nM, a Ki (Carbonic anhydrase 9 [17]) of 53.5 nM and a CC50 (HSC-2) of 39300 nM. The CC50 (HSC-3) was 39300 nM, the CC50 [18] was 39300 nM and the CC50 [19] was 39300 nM. The CC50 (Ca9-22) was 39300 nM and the Ki (Carbonic anhydrase 12 [20]) was 6.2 nM.
`Cc1ccc(C2=NN(c3ccc(S(=O)(=O)NC(=O)Nc4ccccc4)cc3)C(c3ccc(F)cc3)C2)cc1` (stereo not drawn) showed an Activity (Mus musculus [11]) of 16%.
In the case of `CN1N=C2C(C[C@H]3[C@@H]4CCc5cc(O)ccc5[C@H]4CC[C@]23C)C1c1cccs1` (stereo partly drawn), the IC50 (MCF7) is reported as 43 nM.
In the case of `COc1ccc(C2CC(c3ccc(O)cc3)=NN2c2ccc(S(N)(=O)=O)cc2)cc1` (stereo not drawn), the CC50 [16] is reported as 39300 nM, the Ki (Carbonic anhydrase 9 [17]) is reported as 53.5 nM and the CC50 (HSC-2) is reported as 39300 nM. For the same molecule, the CC50 (HSC-3) was 39300 nM, the CC50 [18] was 39300 nM and the CC50 [19] was 39300 nM. The CC50 (Ca9-22) was 39300 nM and the Ki (Carbonic anhydrase 12 [20]) was 6.2 nM.
In the case of `NS(=O)(=O)c1ccc(C(=O)N2N=C(c3ccc(F)cc3)CC2c2ccccc2)cc1` (stereo not drawn), the Ki (Carbonic anhydrase 12 [10]) is reported as 7.1 nM, the Ki (Carbonic anhydrase 2) is reported as 31.7 nM and the Ki (Carbonic anhydrase 9 [4]) is reported as 5.5 nM. For the same molecule, the Ki (Carbonic anhydrase 1) was 87.8 nM.
In the case of `C[C@]12CC[C@@H]3c4ccc(O)cc4CC[C@H]3[C@@H]1CC1C2=NN(c2ccccc2)C1c1ccc(Br)cc1` (stereo partly drawn), the IC50 (MCF7) is reported as 43 nM.
With `O=C(Nc1ccc(Cl)cc1)NS(=O)(=O)c1ccc(N2N=C(c3ccc(Br)cc3)CC2c2ccc(F)cc2)cc1` (stereo not drawn) the Activity (Mus musculus [11]) was 16%.
`Cc1nc(-c2cc(F)cc(F)c2)ccc1C1=NNC(c2c(F)cccc2Cl)C1` (stereo not drawn) showed a Time (Mus musculus [12]) of 70.33 s, an MIC [13] of 12.5 µg/mL (≈ 31.1 µM) and a Time (Mus musculus [14]) of 66.67 s.
With `OCCNc1nc(NCCO)nc(Nc2ccc(C3=NN(c4cc(Cl)cc(Cl)c4)C(c4ccc(C(F)(F)F)cc4)C3)cc2)n1` (stereo not drawn) the GI50 [6] was 569 nM and the CC50 [7] was 5150 nM.
